Reference: patent USRE48461E1, “Modulation of androgen receptor expression” (Ionis Pharmaceuticals, Inc., priority 2012, dated 2021)
Oligonucleotides are written 5' to 3', each unit as a sugar letter and its base; * is a phosphorothioate linkage, no mark a phosphodiester; rarer units and linkages stand in square brackets, end groups in braces. Plain capitals give the bases only. k = constrained ethyl (cEt); [5mC] = 5-methylcytosine; d = 2'-deoxy (DNA)

Key:
KLK2 mRNA = KLK2 mRNA (AR target gene) in C4-2B MR cells; assay type: cell-based, human
total AR mRNA = experiment: Total (full-length) AR mRNA in C4-2B MR cells, free uptake; assay type: cell-based, human; conditions: free uptake, 24 hrs
Procedure, shortened: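 Cells grown in RPMI1640 with 10% FBS received antisense oligonucleotides at 0.04, 0.20, 1.00 and 5.00 μM in the medium by free uptake, no transfection agent. After 24 hrs, total AR mRNA quantified by real-time qPCR with primer probe set RTS3559.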

| Substance | Percent inhibition of KLK2 mRNA in C4-2B MR cells (KLK2 mRNA; 0.04 μM) [%] | Percent inhibition of KLK2 mRNA in C4-2B MR cells (KLK2 mRNA; 0.20 μM) [%] | Percent inhibition of KLK2 mRNA in C4-2B MR cells (KLK2 mRNA; 1.00 μM) [%] | Percent inhibition of KLK2 mRNA in C4-2B MR cells (KLK2 mRNA; 5.00 μM) [%] | Percent inhibition of full-length AR mRNA in C4-2B MR cells (total AR mRNA; 0.04 μM) [%] | Percent inhibition of full-length AR mRNA in C4-2B MR cells (total AR mRNA; 0.20 μM) [%] | Percent inhibition of full-length AR mRNA in C4-2B MR cells (total AR mRNA; 1.00 μM) [%] | Percent inhibition of full-length AR mRNA in C4-2B MR cells (total AR mRNA; 5.00 μM) [%] |
| --- | --- | --- | --- | --- | --- | --- | --- | --- |
| 549372 (kA*kA*kG*dT*dT*dG*dT*dA*dG*dT*dA*dG*dT*k[5mC]*kG*k[5mC]) [compound 549372] | 14 | 16 | 57 | 87 | 35 | 47 | 88 | 91 |
| 549458 (kG*kT*kT*dG*dA*dT*dT*dT*dA*dA*dT*dG*dG*kT*kT*kG) [compound 549458] | 35 | 47 | 87 | 93 | 41 | 78 | 94 | 97 |
